In US8916550B2, “Compounds for modulating TRPV3 function” (Hydra Biosciences, Inc., priority 2005, dated 2014):
Like-named read-outs stand apart in the source and are kept apart here.

Experiments:
[1] = target: T1, NaV1.2 (Homo sapiens, UniProt Q99250); assay: Selectivity patch clamp, NaV1.2 channel; assay type: cell-based; details: fold selective for TRPV3 over NaV1.2; tested up to 30 μM, IC50 estimated
T1 construct: expressed in transfected cells
Excerpt: (§1) Data is presented as fold selective.

[2] = target: T2, TRPV1 (hTRPV1) (Homo sapiens, UniProt Q8NER1); assay: Selectivity patch clamp, TRPV1 channel; assay type: cell-based; details: fold selective for TRPV3 over TRPV1; tested up to 30 μM, IC50 estimated
T2 construct: expressed in transfected cells
T2 sequence (Q8NER1 whole entry): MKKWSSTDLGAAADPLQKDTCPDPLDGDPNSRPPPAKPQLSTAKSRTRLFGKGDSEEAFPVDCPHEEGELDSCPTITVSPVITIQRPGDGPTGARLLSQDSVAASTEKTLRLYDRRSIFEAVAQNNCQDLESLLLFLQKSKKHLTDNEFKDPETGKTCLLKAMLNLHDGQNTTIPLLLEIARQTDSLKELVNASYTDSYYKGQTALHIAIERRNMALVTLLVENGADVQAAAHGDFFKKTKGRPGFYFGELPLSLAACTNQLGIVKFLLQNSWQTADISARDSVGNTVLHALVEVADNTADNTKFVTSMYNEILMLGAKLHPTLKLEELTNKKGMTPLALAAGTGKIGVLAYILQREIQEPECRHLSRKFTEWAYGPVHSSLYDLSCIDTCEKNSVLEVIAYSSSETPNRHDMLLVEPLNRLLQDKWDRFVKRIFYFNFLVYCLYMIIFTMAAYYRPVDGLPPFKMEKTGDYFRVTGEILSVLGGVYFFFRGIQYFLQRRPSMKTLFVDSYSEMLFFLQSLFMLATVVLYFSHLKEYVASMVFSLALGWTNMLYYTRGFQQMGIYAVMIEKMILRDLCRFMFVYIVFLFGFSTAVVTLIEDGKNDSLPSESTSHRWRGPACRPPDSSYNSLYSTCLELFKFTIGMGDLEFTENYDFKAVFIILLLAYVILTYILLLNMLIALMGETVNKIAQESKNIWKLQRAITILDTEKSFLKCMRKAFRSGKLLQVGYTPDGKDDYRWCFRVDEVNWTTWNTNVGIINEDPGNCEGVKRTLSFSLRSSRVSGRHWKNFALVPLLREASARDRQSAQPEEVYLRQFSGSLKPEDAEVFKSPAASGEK
Excerpt: as §1

[3] = target: T3, rat TRPV6 (rTRPV6) (Rattus norvegicus, UniProt Q9R186); assay: Selectivity patch clamp, TRPV6 channel; assay type: cell-based; details: fold selective for TRPV3 over TRPV6; tested up to 30 μM, IC50 estimated
T3 construct: expressed in transfected cells
T3 sequence (Q9R186 1-767): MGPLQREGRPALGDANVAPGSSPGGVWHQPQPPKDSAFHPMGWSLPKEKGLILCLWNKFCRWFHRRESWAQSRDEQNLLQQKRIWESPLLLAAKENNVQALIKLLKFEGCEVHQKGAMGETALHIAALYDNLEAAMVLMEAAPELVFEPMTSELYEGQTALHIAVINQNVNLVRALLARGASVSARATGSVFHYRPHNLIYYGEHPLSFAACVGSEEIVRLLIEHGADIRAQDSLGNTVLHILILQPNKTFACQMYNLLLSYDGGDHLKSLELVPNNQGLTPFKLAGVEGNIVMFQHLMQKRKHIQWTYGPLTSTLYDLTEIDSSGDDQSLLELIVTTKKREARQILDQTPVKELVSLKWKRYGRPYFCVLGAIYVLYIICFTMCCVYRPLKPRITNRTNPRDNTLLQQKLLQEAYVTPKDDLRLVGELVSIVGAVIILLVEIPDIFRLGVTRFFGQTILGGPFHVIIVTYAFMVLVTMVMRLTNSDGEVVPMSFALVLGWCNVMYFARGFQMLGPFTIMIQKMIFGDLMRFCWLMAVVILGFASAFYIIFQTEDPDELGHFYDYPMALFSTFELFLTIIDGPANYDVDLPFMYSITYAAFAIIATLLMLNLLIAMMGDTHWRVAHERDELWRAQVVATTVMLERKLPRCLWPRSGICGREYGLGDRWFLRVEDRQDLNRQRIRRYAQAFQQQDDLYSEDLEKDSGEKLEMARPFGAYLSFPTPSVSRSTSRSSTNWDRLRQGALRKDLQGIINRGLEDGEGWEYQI
Excerpt: as §1

[4] = test system: rats, CFA injected hindpaw; assay: Complete Freund's Adjuvant (CFA) model of inflammatory pain, latency to withdrawal; assay type: in vivo, rat; details: for Effect relative to diclofenac / TRPV1 inhibitor: highest dose tested, 200 mg/kg; for Thermal hyperalgesia (latency to withdrawal): intraperitoneal, tested 45 minutes later
Procedure: As outlined above, the Complete Freund's Adjuvant (CFA) model is a model of inflammatory pain. As such, it may be used to evaluate effectiveness in relieving pain caused by inflammation, for example, pain due to arthritis and other inflammatory conditions. FIG. 9 provides a schematic representation of the protocol used to evaluate a TRPV3 inhibitor in the CFA model.
Naive rats were pretested for sensitivity to a heat stimulus in the Hargreaves apparatus. The next day, 100 μL of complete Freund's adjuvant (CFA) was injected into the plantar surface of the right hindpaw. Two days later, in the morning, the rats were again pretested. In the afternoon, rats were injected with either vehicle control (methylcellulose or PEG-400) or with drug (TRPV3 inhibitor 64, TRPV3 inhibitor 15, TRPV1 inhibitor A-425619, or the non-steroidal anti-inflammatory diclofenac). Drugs or vehicle were injected intraperitoneally, and 45 minutes later rats were tested for hyperalgesia by applying the heat source to the CFA injected and uninjected hindpaw and measuring latency to withdrawal.

[5] = Plasma levels by HPLC/MS/MS after administration; assay type: in vivo; details: rat
Procedure: The plasma levels of TRPV3 inhibitor 15 were determined via HPLC/MS/MS following administration to male Sprague-Dawley rats. Rats were administered a single intravenous bolus dose of 1.2 mg/kg, an intraperitoneal dose of a suspension of 30 or 60 mg/kg, an oral dose of a solution of 8.6 mg/kg, or an oral dose of a suspension of 6.9 mg/kg.
For intravenous administration, TRPV3 inhibitor 15 solutions were formulated in Solutol at a target concentration of 0.25 mg/mL. The solution was administered as a rapid bolus (approximately 2-3 seconds) via the tail vein of conscious rats or via jugular vein catheter in anesthetized rats. The solution was administered at a dose volume of 4 mL/kg.
For intraperitoneal administration, TRPV3 inhibitor 15 was formulated as a uniform suspension in CMC (carboxymethylcellulose) at a target concentration of 5 mg/mL. The suspension was administered at a dose volume of 10 mL/kg.
For oral administration, TRPV3 inhibitor 15 was formulated as either a uniform suspension in CMC or as a solution in Solutol. The target concentration was 1 mg/mL. Oral administration was by gavage at a dose volume of 10 mL/kg to conscious, fasted, male Sprague-Dawley rats.

[6] = test system: Male Holtzmann rats, intraplantar formalin; assay: Formalin model following intrathecal delivery; assay type: in vivo, rat; details: 10 mg/kg intrathecally
Excerpt: As outlined above, the formalin model involves injection of a formalin solution intradermally or intraperitoneally. Injection of formalin solution invokes a biphasic response, and thus provides a model for both nociceptive and inflammatory pain. The formalin model was used to evaluate the effectiveness of an exemplary TRPV3 inhibitor in the treatment of pain following intrathecal (IT) delivery. Efficacy following intrathecal delivery provides evidence that the compound can act centrally.
Briefly, the following protocol was followed. Male Holtzmann rats received intraplantar injections of 50 μL of 2% formalin. Paw flinching was detected by an automated sensor detecting movement of a small metal band placed on the injected hind paw. Drug or vehicle was administered intrathecally approximately 15 minutes prior to the injection of formalin. The animal's response to injection of the irritant was measured by counting flinches per minutes during the Early Phase and during the Late Phase.
Flinches per minute, a measure of the pain and discomfort experienced by the animal, was measured following formalin injection in animals receiving either 10 mg/kg TRPV3 inhibitor (Compound 64) or a vehicle control (0.5% DCC). The TRPV3 inhibitor was formulated in 20% DMSO/20% cremaphore/10% cyclodextrin (DCC) and administered intrathecally. […]

[7] = test system: Male Holtzman rats, substance-P induced thermal hyperalgesia; assay: Intrathecal substance-P induced thermal hyperalgesia; assay type: in vivo, rat; details: 200 mg/kg IP, 30 minutes prior to substance-P; p<0.05 between groups
Procedure: The efficacy of a TRPV3 antagonist in diminishing hyperalgesia was assessed in a model of intrathecal administered substance-P induced thermal hyperalgesia. Male Holtzman rats were used in this study and thermal escape was measured using a Hargreaves apparatus. Thermal escape was measured pre-treatment (baseline), and at intervals following intrathecal administration of substance-P (tested at 15, 30, 45, and 60 minutes post substance-P administration). Control animals were administered vehicle intraperitoneally after baseline assessment and 30 minutes prior to substance P administration. Experimental animals receiving a TRPV3 inhibitor (compound 64) were administered compound intraperitoneally after baseline assessment and 30 minutes prior to substance P administration.
Substance-P induced rats were surgically prepared with a lumbar intrathecal catheter using clean surgical technique while under inhalation anesthesia (isoflurane). The catheter was externalized at the back of the head to minimize handling of the animal during drug delivery. […]
Briefly, baseline mean paw latencies were determined prior to substance-P administration. […] After injection of substance P intrathecally via the previously placed catheter (counted as time=0), measurements of escape latency were taken at 15, 30, 45, and 60 minutes post-substance-P administration. […]

[8] = test system: Male Holtzman rats, thermal injury; assay: Thermal injury model, thermal escape latency (Hargreaves); assay type: in vivo, rat
Procedure: The thermal injury model was used to evaluate the effectiveness of an exemplary TRPV3 inhibitor in the treatment of nociceptive pain. FIG. 1 provides a schematic representation of the protocol used to evaluate a TRPV3 inhibitor in the thermal injury model.
Briefly, the following protocol was followed. Male Holtzman rats (approximately 300 grams) were tested on thermal escape using a Hargreaves type apparatus. Under light anesthesia, a thermal injury (52° C. for 45 seconds) was applied to one heel. The animals were tested for thermal escape latency of the injured and uninjured paw before and at 30, 60, 80 and 120 minutes after injury. Drug (a TRPV3 inhibitor or morphine) or vehicle (0.5% methylcellulose) was administered after the baseline measurement and approximately 15-20 minutes prior to the thermal injury. In addition to the escape latency measurement, behavioral observations were made throughout the experiment.

[9] = test system: rats, CFA injected hindpaw; details: Table B comparators; based on our data as well as data available in the literature; cited from earlier work
[10] = test system: Male Holtzman rats, thermal injury; details: Table B comparators; based on our data as well as data available in the literature; cited from earlier work
[11] = target: human ERG (hERG) (Homo sapiens, UniProt Q12809); assay: Selectivity patch clamp, hERG channel; details: fold selective for TRPV3 over hERG; tested up to 30 μM, IC50 estimated
Sequence of human ERG (hERG) (Q12809 whole entry): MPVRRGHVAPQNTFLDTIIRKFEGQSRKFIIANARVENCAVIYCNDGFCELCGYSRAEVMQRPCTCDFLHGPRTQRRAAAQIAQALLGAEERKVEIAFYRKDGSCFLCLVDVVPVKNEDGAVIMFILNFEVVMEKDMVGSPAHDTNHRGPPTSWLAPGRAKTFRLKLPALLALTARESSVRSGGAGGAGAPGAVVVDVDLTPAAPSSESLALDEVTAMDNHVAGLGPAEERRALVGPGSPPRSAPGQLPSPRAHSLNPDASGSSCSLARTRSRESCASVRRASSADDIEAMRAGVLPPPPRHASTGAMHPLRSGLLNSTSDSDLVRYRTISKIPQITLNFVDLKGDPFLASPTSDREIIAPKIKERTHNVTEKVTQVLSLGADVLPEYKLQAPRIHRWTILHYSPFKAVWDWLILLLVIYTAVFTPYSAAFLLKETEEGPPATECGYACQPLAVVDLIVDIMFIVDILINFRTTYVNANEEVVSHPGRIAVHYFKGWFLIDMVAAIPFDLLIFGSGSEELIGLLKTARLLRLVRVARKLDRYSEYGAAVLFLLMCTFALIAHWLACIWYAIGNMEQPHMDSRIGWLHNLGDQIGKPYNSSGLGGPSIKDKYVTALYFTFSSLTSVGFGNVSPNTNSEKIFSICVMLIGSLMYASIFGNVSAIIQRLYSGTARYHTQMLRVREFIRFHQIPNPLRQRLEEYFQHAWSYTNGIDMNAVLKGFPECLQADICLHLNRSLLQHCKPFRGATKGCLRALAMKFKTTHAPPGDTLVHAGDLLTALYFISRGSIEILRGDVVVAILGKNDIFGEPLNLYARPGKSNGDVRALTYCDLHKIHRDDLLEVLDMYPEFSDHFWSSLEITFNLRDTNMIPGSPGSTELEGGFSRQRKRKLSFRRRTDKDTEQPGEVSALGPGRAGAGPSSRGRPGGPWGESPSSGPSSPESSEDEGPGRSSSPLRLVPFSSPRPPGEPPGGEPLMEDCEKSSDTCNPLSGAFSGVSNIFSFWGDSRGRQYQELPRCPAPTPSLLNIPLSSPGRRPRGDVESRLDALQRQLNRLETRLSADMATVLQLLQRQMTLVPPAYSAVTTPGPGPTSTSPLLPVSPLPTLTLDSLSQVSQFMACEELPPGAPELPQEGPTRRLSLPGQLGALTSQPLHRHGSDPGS
Procedure: Compounds of interest were tested against these channels at concentrations up to 30 μM, and the resulting data were used to estimate IC50. Data is presented as fold selective.

[12] = target: T3, rat TRPV6 (rTRPV6); details: (Clapham et al.); cited from earlier work

T1 sequence (Q99250 whole entry): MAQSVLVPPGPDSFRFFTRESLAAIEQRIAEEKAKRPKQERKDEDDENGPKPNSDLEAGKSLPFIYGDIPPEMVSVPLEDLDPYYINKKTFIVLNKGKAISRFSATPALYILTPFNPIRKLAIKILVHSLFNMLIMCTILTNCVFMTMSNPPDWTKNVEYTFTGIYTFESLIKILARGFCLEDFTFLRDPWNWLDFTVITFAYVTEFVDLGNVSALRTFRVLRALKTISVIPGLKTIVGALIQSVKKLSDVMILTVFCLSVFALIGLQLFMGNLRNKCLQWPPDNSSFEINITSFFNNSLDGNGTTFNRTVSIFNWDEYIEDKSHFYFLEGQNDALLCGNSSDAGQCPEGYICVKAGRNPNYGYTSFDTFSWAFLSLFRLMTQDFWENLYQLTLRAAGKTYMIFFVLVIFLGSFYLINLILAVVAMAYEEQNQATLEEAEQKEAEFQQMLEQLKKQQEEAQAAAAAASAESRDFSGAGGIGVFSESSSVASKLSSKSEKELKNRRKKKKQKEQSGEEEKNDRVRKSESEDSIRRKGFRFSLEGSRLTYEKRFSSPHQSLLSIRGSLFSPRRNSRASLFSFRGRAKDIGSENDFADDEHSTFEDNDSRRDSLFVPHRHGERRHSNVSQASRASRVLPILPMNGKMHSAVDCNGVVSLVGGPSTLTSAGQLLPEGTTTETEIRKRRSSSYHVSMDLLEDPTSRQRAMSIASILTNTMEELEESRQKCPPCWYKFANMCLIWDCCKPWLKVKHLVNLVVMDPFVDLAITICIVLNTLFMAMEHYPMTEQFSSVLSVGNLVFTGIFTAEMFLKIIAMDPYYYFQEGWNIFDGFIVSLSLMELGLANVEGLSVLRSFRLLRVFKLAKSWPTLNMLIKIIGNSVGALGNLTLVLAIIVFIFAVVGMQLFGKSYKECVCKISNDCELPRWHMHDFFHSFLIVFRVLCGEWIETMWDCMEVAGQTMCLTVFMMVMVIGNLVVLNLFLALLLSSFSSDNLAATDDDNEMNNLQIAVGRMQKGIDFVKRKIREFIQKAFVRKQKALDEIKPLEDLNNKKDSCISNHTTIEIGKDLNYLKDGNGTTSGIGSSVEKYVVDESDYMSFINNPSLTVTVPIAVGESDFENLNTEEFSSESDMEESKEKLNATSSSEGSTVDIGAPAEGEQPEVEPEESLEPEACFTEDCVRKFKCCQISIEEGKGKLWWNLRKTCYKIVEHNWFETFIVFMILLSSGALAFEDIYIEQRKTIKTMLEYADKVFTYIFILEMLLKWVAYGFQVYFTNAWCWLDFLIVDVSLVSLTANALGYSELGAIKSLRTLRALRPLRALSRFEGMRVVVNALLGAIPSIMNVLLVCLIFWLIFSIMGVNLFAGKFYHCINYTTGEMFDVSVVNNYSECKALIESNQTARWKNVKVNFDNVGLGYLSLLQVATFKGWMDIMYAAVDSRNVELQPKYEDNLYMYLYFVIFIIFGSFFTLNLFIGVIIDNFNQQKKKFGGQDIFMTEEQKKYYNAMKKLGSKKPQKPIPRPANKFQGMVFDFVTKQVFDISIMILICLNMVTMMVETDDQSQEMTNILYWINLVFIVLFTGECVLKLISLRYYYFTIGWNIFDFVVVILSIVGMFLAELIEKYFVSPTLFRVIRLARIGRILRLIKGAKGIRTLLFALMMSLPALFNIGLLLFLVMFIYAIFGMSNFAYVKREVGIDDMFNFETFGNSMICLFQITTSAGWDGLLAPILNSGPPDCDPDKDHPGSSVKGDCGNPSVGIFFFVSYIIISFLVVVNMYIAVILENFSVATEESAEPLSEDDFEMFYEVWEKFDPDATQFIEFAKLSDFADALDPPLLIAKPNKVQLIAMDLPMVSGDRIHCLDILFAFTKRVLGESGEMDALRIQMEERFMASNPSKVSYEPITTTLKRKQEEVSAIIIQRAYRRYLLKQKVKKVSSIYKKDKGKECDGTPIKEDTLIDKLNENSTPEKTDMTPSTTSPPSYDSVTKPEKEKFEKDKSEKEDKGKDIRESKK

Cc1cccc2c1N(C(=O)CSc1nc3cc(Cl)ccc3s1)CCC2 [Compound 15, 2-(5-Chlorobenzothiazol-2-ylsulfanyl)-1-(8-methyl-3,4-dihydro-2H-quinolin-1-yl)-ethanone]
TRPV3:NaV1.2 fold selectivity [1]: >1000 fold
TRPV3:TRPV1 fold selectivity [2]: >1000 fold
TRPV3:TRPV6 fold selectivity [3]: >1000 fold
Effect relative to diclofenac / TRPV1 inhibitor [4]: more potent than the effects of the non-steroidal anti-inflammatory
Thermal hyperalgesia (latency to withdrawal) [4]: reduced thermal hyperalgesia
bioavailability ([5]; male, Sprague-Dawley, fasted rats, oral, solution or suspension, read-out: Estimated bioavailability): ~5%
half-life ([5]; male Sprague-Dawley rats, read-out: Estimated half-life (converted)): 1.6 h
clearance ([5]; male Sprague-Dawley rats, read-out: Estimated plasma clearance): 41 mL/min/kg
Vd ([5]; male Sprague-Dawley rats, read-out: Estimated volume of distribution): 5.51 L/kg

Cc1cccc2c1N(C(=O)CSc1nc3ccccc3s1)CCC2 [Compound 46, 2-(Benzothiazol-2-ylsulfanyl)-1-(8-methyl-3,4-dihydro-2H-quinolin-1-yl)-ethanone]
TRPV3:TRPV1 fold selectivity [2]: >200 fold

O=C(CSc1nc2ccccc2s1)N1CCCc2ccccc21 [Compound 64, 2-(Benzo[d]thiazol-2-ylthio)-1-(3,4-dihydroquinolin-1(2H)-yl)ethanone]
Flinches per minute ([6]; about 15 minutes prior to formalin, vs vehicle): substantially reduced the flinches per minute
Flinches per minute, Late Phase ([6]; Late Phase): statistically significant reduction
TRPV3:NaV1.2 fold selectivity [1]: >40 fold
TRPV3:TRPV1 fold selectivity [2]: >40 fold
Thermal hyperalgesia (mean paw latency) [7]: reversed the hyperalgesia
TRPV3:TRPV6 fold selectivity [3]: >40 fold
Effect relative to diclofenac / TRPV1 inhibitor [4]: more potent than the effects of either the non-steroidal anti-inflammatory or the TRPV1 inhibitor
Pain sensitivity of inflamed paw ([4]; individual rats, FIG. 11): returns pain sensitivity to baseline levels
Thermal hyperalgesia (latency to withdrawal) [4]: reduced thermal hyperalgesia
Escape latency in the injured paw ([8]; 200 mg/kg): comparable to that observed prior to injury
Escape latency in the uninjured paw ([8]; even at the highest concentrations administered (FIG. 3)): no effect on the uninjured paw
Escape latency in the injured paw ([8]; increasing concentrations of inhibitor vs methylcellulose control (FIG. 2)): significantly diminished pain

NCC1(CC(=O)O)CCCCC1 [Gabapentin]
CFA Model [9]: Ineffective
Acute thermal injury [10]: Effective

N.N.N.N.N.N.N.N.N.N.N.N.N.N.[Cl-].[Cl-].[Cl-].[Cl-].[Cl-].[Cl-].[O-2].[O-2].[Ru+3].[Ru+3].[Ru+4] [Ruthenium Red]
TRPV3:TRPV1 fold selectivity [2]: 3 fold selective
TRPV3:hERG fold selectivity [11]: >40 fold
TRPV3:TRPV6 fold selectivity [12]: 10 fold
